Results published in publication PMC6597546, “Identification of a potent benzoxaborole drug candidate for treating cryptosporidiosis” (Nature Communications, 2019).
≈ marks a conversion by molar mass, not a printed value. Where “and” joins values, the source holds several entries; their conditions need not be identical. Identical values can stand only once. Like-named read-outs stand apart in the source and are kept apart here.

What was measured:
[1] = test system: C. parvum invasion of HCT-8 host cells; assay: HCT-8 host cell invasion assay; type: cell-based, Cryptosporidium parvum; conditions: HCT-8 host cells, 3 h
Procedure: The invasion assay, DNA replication assay, asexual to sexual stage conversion, and time-kill curve assays were performed using fluorescence microscopy to enumerate parasites and host cell nuclei. Staining protocols are individually described for each assay. Unless noted otherwise, the details of image acquisition were as follows. An inverted Nikon Eclipse Ti2000 microscope with an automated stage and Perfect Focus was used with NIS-Elements Advanced Research software (Nikon, USA, version 4.30.01) to image the wells. The microscope was programmed to focus on the center of each well and then take a 3 × 3 composite image per well using a 20 × (0.45 NA) objective. Images were exported as .tiff files and parasites and host nuclei counted using a custom macro on ImageJ (National Institutes of Health, version 1.52a). Data were analyzed using Microsoft Excel and GraphPad Prism (version 6.01).
Host cell invasion was assayed by allowing C. parvum to invade host cell monolayers in the presence of compound, and enumerating parasites and host cells after just 3 h (i.e., before completion of a parasite division cycle)[38]. HCT-8 cells were grown in RPMI media supplemented with 120 U per mL penicillin and 120 μg per mL streptomycin and 10% heat inactivated fetal bovine serum (complete media) and C. parvum Iowa isolate oocysts from Bunch Grass Farms (Deary, ID) were used for infection. When cells reached a confluence of >99%, media was removed and replaced with 25 µL per well of fresh media containing twice the indicated concentrations of compounds and incubated for 1 h at 37 °C in a humidified CO2 incubator. In the meantime, oocysts were induced for excystation by first treating with 10 mM hydrochloric acid (diluted with distilled water) for 10 min at 37 °C followed by 2 mM sodium taurocholate (in phosphate buffered saline (PBS) with calcium and magnesium) for 10 min at 16 °C. Before and after each treatment, oocysts were spun down at 14,000 × g for 4.5 min and supernatant was removed. […]

[2] = 7-day repeated oral dose toxicity study in rats
Procedure: A repeated oral dose toxicity and separate toxicokinetics (TK) study were performed in male rats by WuXi AppTec Company (Suzhou, China). […] Animals were individually housed in solid bottom plastic cages with bedding in compliance with the US Animal Welfare Act. All rat studies were performed using ∼8-week-old Sprague-Dawley male rats (Rattus novegicus)/Crl: CD[SD] […] Cage side clinical observations of condition and behavior (i.e., gait, stool, activity level, atonia, coat soiling and grooming, skin turgor, posture, priapism, piloerection) were performed twice daily during the dosing phase, and weights and food consumption were measured daily. At termination, all study animals were evaluated for erythrocyte count, absolute reticulocyte count, alkaline phosphatase, and triglycerides by fasting the animals overnight and obtaining blood from the abdominal aorta at necropsy as a terminal procedure under deep anesthesia (pentobarbital). A complete necropsy and histopathologic studies (hematoxylin and eosin staining) of large intestine, small intestine, stomach, and any gross lesions were performed on all animals on day 7 of dosing. […] Serum was collected from vehicle-control animals at 1 h and 4 h after dosing on days 1 and 7. […] Following completion of blood collection, TK animals were euthanized by CO2 inhalation and exsanguination without necropsy.

Solubility PBS pH 7.4 = type: physicochemical; conditions: aqueous buffer
C. hominis TU502 isolate = assay: C. hominis growth inhibition in HCT-8 cells; type: cell-based, Cryptosporidium hominis; conditions: single replicates, unit inferred, read-out: In vitro efficacy (Fig 2b, EC50)
Procedure: Follow-up assays were performed at the University of Vermont (UVM) and Calibr at Scripps Research by infection of the colonic adenocarcinoma cell line HCT-8 (ATCC CCL-244) and staining with the Vicia villosa lectin and DAPI[17],[32]. The FBS concentrations and parasites used for these assays were as indicated; parasite isolates and sources included C. parvum Iowa isolate oocysts purchased from Bunch Grass Farm (Deary, ID), C. parvum Iowa isolate oocysts purchased from the Sterling Laboratory (University of Arizona, Tucson, AZ), wild type C. parvum oocysts provided by Dr. Jenni Zambriski (Virginia Tech, Blacksburg, VA), and the C. hominis TU502 isolate purchased from Dr. Saul Tzipori (Tufts University Cummings School of Veterinary Medicine, North Grafton, MA).

[3] = test system: C. parvum (University of Arizona Iowa isolate); type: in vivo, C57BL/6 IFN-γ−/− mice
Procedure: Interferon gamma (IFN-γ) knockout mice were used to model acute Cryptosporidium infection. All IFN-γ knockout mouse studies were performed in compliance with animal care guidelines and were approved by the Explora BioLabs (San Diego, CA) Institutional Animal Care and Use Committee. Four-week-old female C57BL/6 IFN-γ^−/− mice with normal flora were purchased from The Jackson laboratory and acclimated for 3 days prior to infection by oral gavage with ∼10^6 C. parvum Iowa isolate oocysts (Sterling Laboratory, University of Arizona) suspended in sterile distilled water. At the indicated times following infection, mice were treated with compound vehicle alone, clofazimine (positive control), or once daily AN7973 at the indicated doses. Fecal parasite shedding was measured by isolating oocysts using sucrose gradient centrifugation. Sheather’s sucrose solution was freshly prepared by dissolving 156.25 g sucrose and 2.5 mL phenol in 100 mL water. Two sucrose solutions were prepared: (A) specific gravity of 1.103 (33% Sheather’s and 0.1% Tween 80 in PBS) and (B) specific gravity of 1.064 (20% Sheather’s and 0.1% Tween 80 in PBS). In a 2 mL microfuge tube, a gradient was prepared by laying 0.75 mL of solution A, then carefully laying 0.75 mL of solution B, slowly as to prevent mixing of the two layers. Fecal pellets were removed from storage, and homogenized by vortexing and pipetting. 0.2 mL fecal homogenate was overlaid on top of gradient in each microfuge tube. Oocysts were floated from feces by centrifugation at 1000 × g for 20 min and collected with a pipet tip from the 1.064/1.103 specific gravity interface between solutions A and B. Oocysts were rinsed once in cold PBS, pelleted by centrifugation at 15,000 × g for 10 min, and resuspended in PBS. Isolated oocysts were then stained with a fluorescein isothiocyanate-conjugated mouse anti-Cryptosporidium antibody (Bio-Rad catalog# 2402-3007 F; 0.25 µg per sample) and quantified using a Guava EasyCyte flow cytometer and CytoSoft data acquisition software (version 5.3; Guava Technologies, Inc.). Oocysts per milliliter of sample were normalized to counts per milligram of feces.

CC1(C)OB(O)c2cc(NC(=O)c3ccc(-n4cccn4)cc3Cl)ccc21 [AN7973]
activity in C. parvum invasion assay [1]: no activity | tolerability in rats ([2]; 80 mg per kg per day oral gavage, seven days, male rats): well tolerated | Alkaline phosphatase on day 8 ([2]; 80 mg·kg-1·d-1, mean ± SD): 188 ± 17 U·L-1 | Average weight on day 1 ([2]; 80 mg·kg-1·d-1, mean ± SD): 260.24 g | Average weight on day 7 ([2]; 80 mg·kg-1·d-1, mean ± SD): 305.36 ± 8.8 g | Reticulocyte count on day 8 ([2]; 80 mg·kg-1·d-1, mean ± SD): 563.2 ± 66.6 ×10^9 per L | Total food consumption (days 1-7) ([2]; 80 mg·kg-1·d-1, mean ± SD): 156.1 ± 10.1 g | Triglycerides on day 8 ([2]; 80 mg·kg-1·d-1, mean ± SD): 0.39 ± 0.16 mmol/L | Mortality (unscheduled deaths) ([2]; 80 mg·kg-1·d-1, n=5): 0 | solubility (Solubility PBS pH 7.4): 126 µM (≈ 48.1 µg/mL) | EC50 (C. hominis TU502 isolate; C. hominis (Tu502, 2%FBS)): 570 nM and 580 nM | EC50 (C. hominis TU502 isolate; Cryptosporidium hominis, HCT-8, C. hominis (Tu502, 2%FBS)): 750 nM | fecal oocyst shedding, individual mice ([3]; 10 mg/kg QD from day 4, day p.i. 8): 5.45 and 13 (2×) and 10 | fecal oocyst shedding, individual mice ([3]; 10 mg/kg QD from day 4, day p.i. 14): 11 and 15 (2×) and 21 | fecal oocyst shedding, individual mice ([3]; 25 mg/kg QD from day 4, day p.i. 7): 3 (2×) and 6 and 9 | efficacy in IFN-γ KO mouse ([3]; 5, 10, 25 mg per kg once daily oral, efficacy at 10 mg per kg, maximal efficacy similar to clofazimine): dose-dependent efficacy | adverse effects in IFN-γ KO mice ([3]; mouse, in vivo): no adverse effects
